Results taken from patent US20240140931A1, “TRICYCLIC COMPOUNDS AND USES THEREOF” (HUTCHMED LIMITED, priority 2021, published 2024).

How the values were obtained:
[1] = biological target: Human full-length SHP2 recombinant protein (Homo sapiens (Human), UniProt Q06124); test: Assay of full-length SHP2 phosphatase activity; type: biochemical; conditions: DiFMUP substrate, with activating peptide
Description: Example 2 Assay of Full-Length SHP2 Phosphatase Activity
1. Reagents and Materials • Human full-length SHP2 recombinant protein: BPS Bioscience, Cat #79018; • SHP2 substrate DiFMUP (1 mM): BPS Bioscience, Cat #79769; • SHP2 activating peptide (100 μM): BPS Bioscience, Cat #79319-2; • DTT: Merck, Cat #DTT-RO; • 384-well plate: Corning, Cat #3575; • 96-well plate: Thermo Fisher Scientific, Cat #249952; • Instrument: EnVision 2104, PerkinElmer.
2. Preparation of Reaction Solutions
The test compound was dissolved in DMSO and diluted with DMSO to 100.0 μM, and the compound was further 3-fold diluted with DMSO to: 100.00, 33.33, 11.11, 3.70, 1.23, 0.41, 0.14 and 0.05 μM.
3. Experimental Steps • To the corresponding wells of the 384-well plate was added 2.5 μL of 4× test compound or 2.5 μL of 4% DMSO solution, and centrifugation was carried out at 1000 rpm for 30 seconds. • To the test compound well and positive control well was added 2.5 μL of 4× mixed solution of SHP2 enzyme/activating peptide while to the negative control well was added 2.5 μL of 1× enzymatic reaction buffer; centrifugation was carried out at 1000 rpm for 30 seconds and incubation was carried out at room temperature for 30 minutes. • To each well was added 5 μL of 2×DiFMUP substrate to initiate the enzymatic reaction, then the plate was transiently oscillated and centrifuged at 1000 rpm for 30 seconds, and the 384-well plate was sealed with a sealing membrane and incubated at 25° C. on a low-speed shaker (100 rpm) in the dark for 60 minutes. • The fluorescence value (relative fluorescence units, RFU) of each well was detected on EnVision2104 (excitation: 355 nm, emission: 460 nm).
wherein • the RFU of compound well refers to the fluorescence reading at 460 nm of the well containing the test compounds; • the RFU of negative control well refers to the fluorescence reading at 460 nm of the background well containing 1% DMSO and the enzymatic reaction buffer; • the RFU of positive control well refers to the fluorescence reading at 460 nm of the well containing 1% DMSO and the mixed solution of SHP2 enzyme/activating peptide.
(§1) IC50 values were calculated following formula 205: y=A+((B−A)/(1+((C/X)^D))), by using the XL-Fit 5.0 software.

[2] = test system: pERK1/2 (Thr202/Tyr204) in Miapaca2 cells; test: Assay of intracellular pERK1/2 (Thr202/Tyr204) phosphorylation; type: cell-based; conditions: pERK1/2 (Thr202/Tyr204) HTRF
Description: Example 3 Assay of Intracellular pERK1/2 (Thr202/Tyr204) Phosphorylation
1. Reagents and Materials • pERK1/2 (Thr202/Tyr204) HTRF kit: Cisbio, Cat #64ERKPEH; • Cell line: Miapaca2, ATCC, CRL-1420; • OptiPlate™-384-well plate: PerkinElmer, Cat #6007299; • 96-well plate: Corning, Cat #353072; • Instrument: EnVision2104, PerkinElmer.
2. Preparation of Reaction Solutions • The test compound was dissolved in DMSO and diluted with DMSO to 600.0 μM, and the compound was further 3-fold diluted with DMSO to: 600.0, 200.0, 66.7, 22.2, 7.4, 2.5, 0.82 and 0.27 μM. Then 10 μL of the compound at different dilution concentrations was added to 190 μL of a DMEM medium to prepare a 10× test compound, wherein DMSO was at the concentration of 5% (DMSO was at the final concentration of 0.5%). • 1× cell lysis buffer: 4× cell lysis stock solution (provided by the kit) was diluted 4-fold with deionized water, and then 1% 100× blocking stock solution (provided by the kit) was added thereto. • pERK1/2 detection solution (prepared just before use): the pERK1/2 d2 antibody (provided by the kit) and pERK1/2 Cryptate antibody (provided by the kit) were diluted with the detection solution (provided by the kit) at a ratio of 1:1:38.
3. Experimental Steps • Miapaca2 cells were inoculated into a 96-well plate at a density of 10000 cells/well at 90 μL/well and cultured in a cell incubator at 5% CO2 and 37° C. overnight. • 10 μL of 10× test compound was added to the 90 μL cell culture 96-well plate; to the cell positive control well was added 10 μL of 5% DMSO culture solution; and the plate was cultured in a cell incubator at 5% CO2 and 37° C. for 2 hours. • The medium in the 96-well plate was removed; 50 μL of 1× cell lysis buffer was added to each well; the plate was placed in a microplate shaker; and lysis under shaking was carried out at 900 rpm at room temperature for 1 hour. • 16 μL of the lysis buffer in the 96-well plate was taken and transferred to a 384-well plate, and centrifugation was carried out at 1000 rpm for 30 seconds; then 4 μL of pERK1/2 detection solution was added to each well and centrifugation was carried out at 1000 rpm for 30 seconds; and the 384-well plate was sealed with a sealing membrane and incubated at 25° C. on a low-speed shaker (100 rpm) in the dark for 2 hours. • The fluorescence value (relative fluorescence units, RFU) of each well was detected on EnVision2104 (emission 1: 665 nm, emission 2: 615 nm).
wherein • the fluorescence ratio of compound well refers to the fluorescence ratio of the well containing the test compounds; • the fluorescence ratio of negative control well refers to the fluorescence ratio of the background containing the cell lysis buffer and no Miapaca2 cells; • the fluorescence ratio of positive control well refers to the fluorescence ratio of the well containing 0.5% DMSO and Miapaca2 cells.
as §1

Chain of Human full-length SHP2 recombinant protein (Q06124 whole entry): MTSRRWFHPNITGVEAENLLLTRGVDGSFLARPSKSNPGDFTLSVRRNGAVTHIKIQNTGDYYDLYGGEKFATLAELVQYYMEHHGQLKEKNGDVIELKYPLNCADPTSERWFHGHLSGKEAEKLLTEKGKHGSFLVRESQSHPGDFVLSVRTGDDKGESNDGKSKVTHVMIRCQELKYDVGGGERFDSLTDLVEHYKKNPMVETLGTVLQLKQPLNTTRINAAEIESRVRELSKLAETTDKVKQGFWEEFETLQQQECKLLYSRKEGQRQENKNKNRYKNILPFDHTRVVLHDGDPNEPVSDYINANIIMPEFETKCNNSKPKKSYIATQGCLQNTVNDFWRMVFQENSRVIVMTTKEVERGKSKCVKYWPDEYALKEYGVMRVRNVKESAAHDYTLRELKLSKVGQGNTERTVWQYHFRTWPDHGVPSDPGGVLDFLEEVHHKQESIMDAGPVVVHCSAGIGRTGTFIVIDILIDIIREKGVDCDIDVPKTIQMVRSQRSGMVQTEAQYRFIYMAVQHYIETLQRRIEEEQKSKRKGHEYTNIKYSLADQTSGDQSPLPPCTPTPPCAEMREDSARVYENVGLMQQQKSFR

C#Cc1ccc2c(c1)[C@@H](N)C1(CCN(c3cc(=O)n(-c4cccc(OC)c4Cl)c(C)n3)CC1)C2 (atropisomer, axis not shown) [Compound 110]
IC50 [1]: 0.249 µM | IC50 ([2]; 2 hours): 0.959 µM

C#Cc1ccc2c(c1)[C@@H](N)C1(CCN(c3cc(=O)n(-c4cccc(OC)c4Cl)c(C)n3)CC1)C2 (atropisomer, axis not shown) [Compound 111]
IC50 [1]: 0.002 µM | IC50 ([2]; 2 hours): 0.015 µM

C#Cc1ccc2c(c1)[C@@H](N)C1(CCN(c3cc(=O)n(-c4ccc(F)c(F)c4Cl)c(C)n3)CC1)C2 (atropisomer, axis not shown) [Compound 113]
IC50 [1]: 0.002 µM | IC50 ([2]; 2 hours): 0.014 µM

C#Cc1ccc2c(c1)[C@@H](N)C1(CCN(c3cc(=O)n(-c4ccc(F)c(F)c4Cl)c(C)n3)CC1)C2 (atropisomer, axis not shown) [Compound 114]
IC50 [1]: 0.053 µM | IC50 ([2]; 2 hours): 0.284 µM

C#Cc1ccc2c(c1)[C@@H](N)C1(CCN(c3cc(=O)n(-c4cccc(C(F)(F)F)c4Cl)c(C)n3)CC1)C2 (atropisomer, axis not shown) [Compound 118]
IC50 [1]: 0.003 µM | IC50 ([2]; 2 hours): 0.04 µM

C#Cc1ccc2c(c1)[C@@H](N)C1(CCN(c3cc(=O)n(-c4cccc(C(F)(F)F)c4Cl)c(C)n3)CC1)C2 (atropisomer, axis not shown) [Compound 119]
IC50 [1]: 0.178 µM | IC50 ([2]; 2 hours): 0.698 µM

COCC#Cc1ccc2c(c1)[C@@H](N)C1(CCN(c3cc(=O)n(-c4ccc(F)c(Cl)c4Cl)c(C)n3)CC1)C2 (atropisomer, axis not shown) [Compound 124]
IC50 [1]: 0.0013 µM | IC50 ([2]; 2 hours): 0.015 µM

COCC#Cc1ccc2c(c1)[C@@H](N)C1(CCN(c3cc(=O)n(-c4ccc(F)c(Cl)c4Cl)c(C)n3)CC1)C2 (atropisomer, axis not shown) [Compound 125]
IC50 [1]: 0.096 µM | IC50 ([2]; 2 hours): 0.175 µM

C#Cc1ccc2c(c1)[C@@H](N)C1(CCN(c3cc(=O)n(-c4ccc(F)c(OC)c4Cl)c(C)n3)CC1)C2 (atropisomer, axis not shown) [Compound 162]
IC50 [1]: 0.034 µM | IC50 ([2]; 2 hours): 0.155 µM

COCC#Cc1ccc2c(c1)[C@@H](N)C1(CCN(c3cc(=O)n(-c4ccc(F)c(OC)c4Cl)c(C)n3)CC1)C2 (atropisomer, axis not shown) [Compound 164]
IC50 [1]: 0.042 µM | IC50 ([2]; 2 hours): 0.154 µM

CNC(=O)C#Cc1ccc2c(c1)[C@@H](N)C1(CCN(c3cc(=O)n(-c4cccc(OC)c4Cl)c(C)n3)CC1)C2 (atropisomer, axis not shown) [Compound 181]
IC50 [1]: 0.044 µM | IC50 ([2]; 2 hours): 0.447 µM

C#Cc1ccc2c(c1)[C@@H](N)C1(CCN(c3cc(=O)n(-c4ccc(C#N)c(OC)c4Cl)c(C)n3)CC1)C2 (atropisomer, axis not shown) [Compound 190]
IC50 [1]: 0.253 µM | IC50 ([2]; 2 hours): 0.672 µM

C#Cc1ccc2c(c1)[C@@H](N)C1(CCN(c3cc(=O)n(-c4ccc(C#N)c(Cl)c4Cl)c(C)n3)CC1)C2 (atropisomer, axis not shown) [Compound 192]
IC50 [1]: > 1 µM | IC50 ([2]; 2 hours): > 1 µM

CNC(=O)C#Cc1ccc2c(c1)[C@@H](N)C1(CCN(c3cc(=O)n(-c4ccc(F)c(OC)c4Cl)c(C)n3)CC1)C2 (atropisomer, axis not shown) [Compound 200]
IC50 [1]: 0.025 µM | IC50 ([2]; 2 hours): 0.512 µM

CC#Cc1ccc2c(c1)[C@@H](N)C1(CCN(c3cc(=O)n(-c4ccc(F)c(OC)c4Cl)c(C)n3)CC1)C2 (atropisomer, axis not shown) [Compound 208]
IC50 [1]: 0.058 µM | IC50 ([2]; 2 hours): 0.187 µM

CNC(=O)C#Cc1ccc2c(c1)[C@@H](N)C1(CCN(c3cc(=O)n(-c4ccc(F)c(F)c4Cl)c(C)n3)CC1)C2 (atropisomer, axis not shown) [Compound 210]
IC50 [1]: 0.052 µM | IC50 ([2]; 2 hours): 0.527 µM

CC#Cc1ccc2c(c1)[C@@H](N)C1(CCN(c3cc(=O)n(-c4ccc(F)c(F)c4Cl)c(C)n3)CC1)C2 (atropisomer, axis not shown) [Compound 218]
IC50 [1]: 0.104 µM | IC50 ([2]; 2 hours): 0.944 µM

CC#Cc1ccc2c(c1)[C@@H](N)C1(CCN(c3cc(=O)n(-c4ccc(F)c(Cl)c4Cl)c(C)n3)CC1)C2 (atropisomer, axis not shown) [Compound 220]
IC50 [1]: 0.317 µM | IC50 ([2]; 2 hours): > 1 µM

C#Cc1ccc2c(c1)[C@@H](N)C1(CCN(c3cc(=O)n(-c4ccccc4Cl)c(C)n3)CC1)C2 (single isomer, unassigned) [Compound 56]
IC50 [1]: 0.002 µM | IC50 ([2]; 2 hours): 0.085 µM

C#Cc1ccc2c(c1)[C@@H](N)C1(CCN(c3cc(=O)n(-c4ccccc4Cl)c(C)n3)CC1)C2 (single isomer, unassigned) [Compound 57]
IC50 [1]: 0.028 µM | IC50 ([2]; 2 hours): 0.526 µM

C#Cc1ccc2c(c1)CC1(CCN(c3ncc(Sc4ccnc(N)c4Cl)c4nccn34)CC1)[C@@H]2N [Compound 1, (S)-1′-(8-((2-amino-3-chloropyridin-4-yl)thio)imidazo[1,2-c]pyrimidin-5-yl)-5-ethynyl-1,3-dihydrospiro[indene-2,4′-piperidin]-1-amine]
IC50 [1]: 0.002 µM | IC50 ([2]; Homo sapiens, MIA PaCa-2, 2 h): 0.018 µM

C#Cc1ccc2c(c1)CC1(CCN(c3cnc(Sc4ccnc(N)c4Cl)c(N)n3)CC1)[C@@H]2N [Compound 2]
IC50 [1]: 0.005 µM | IC50 ([2]; Homo sapiens, MIA PaCa-2, 2 h): 0.023 µM

C#Cc1ccc2c(c1)CC1(CCN(c3ncc(Sc4ccnc(NCCOC)c4Cl)c4nccn34)CC1)[C@@H]2N [Compound 3]
IC50 [1]: 0.009 µM | IC50 ([2]; Homo sapiens, MIA PaCa-2, 2 h): 0.081 µM

C#Cc1ccc2c(c1)CC1(CCN(c3nc(N)c(-c4cn(C)c5ncccc45)c(=O)n3C)CC1)[C@@H]2N [Compound 4, (S)-6-amino-2-(1-amino-5-ethynyl-1,3-dihydrospiro[indene-2,4′-piperidin]-1′-yl)-3-methyl-5-(1-methyl-1H-pyrrolo[2,3-b]pyridin-3-yl)pyrimidin-4(3H)-one]
IC50 [1]: 0.004 µM | IC50 ([2]; Homo sapiens, MIA PaCa-2, 2 h): 0.16 µM

C#Cc1ccc2c(c1)CC1(CCN(c3nc(N)c(Sc4ccnc(N)c4Cl)c(=O)n3C)CC1)[C@@H]2N [Compound 5]
IC50 [1]: 0.002 µM | IC50 ([2]; Homo sapiens, MIA PaCa-2, 2 h): 0.023 µM

C#Cc1ccc2c(c1)CC1(CCN(c3ncc(-c4cn(C)c5ncccc45)c4nccn34)CC1)[C@@H]2N [Compound 6]
IC50 [1]: 0.42 µM | IC50 ([2]; Homo sapiens, MIA PaCa-2, 2 h): > 3 µM

C#Cc1ccc2c(c1)CC1(CCN(c3ncc(Sc4ccnc(NCCO)c4Cl)c4nccn34)CC1)[C@@H]2N [Compound 7]
IC50 [1]: 0.01 µM | IC50 ([2]; Homo sapiens, MIA PaCa-2, 2 h): 0.028 µM

C#Cc1ccc2c(c1)[C@@H](N)C1(CCN(c3ncc(Sc4ccnc(N)c4Cl)c4nccn34)CC1)C2 [Compound 8]
IC50 [1]: 0.003 µM | IC50 ([2]; Homo sapiens, MIA PaCa-2, 2 h): 0.008 µM
